Test results from ChEMBL document CHEMBL1148205, “Strongylophorine-26, a new meroditerpenoid isolated from the marine sponge Petrosia (Strongylophora) corticata that exhibits anti-invasion activity” (J Nat Prod, 2004).
In brackets after ≈: the same amount, converted by molar mass. Activity calls are given as the source filed them. The calls are words filed in the database; no cut-off is given here.

What was measured:
Format in all cases: functional, cell-based
MDA-MB-231 [1] = experiment: Inhibition of human MDA-MB-231 cells invasion by Matrigel cell invasion assay
MDA-MB-231 [2] = experiment: Inhibition of human MDA-MB-231 cells invasion at <50 ug/mL by Matrigel cell invasion assay
MDA-MB-231 [3] = experiment: Inhibition of human MDA-MB-231 cells invasion at 2.5 ug/mL by Matrigel cell invasion assay

IC50 (MDA-MB-231 [1]) [µg/mL] | SMILES | Activity (MDA-MB-231 [2]) | Activity (MDA-MB-231 [3])
7 (≈ 16.4 µM) | C[C@@]12CC[C@@H]3[C@]4(CCC[C@]3(C)C(=O)OC4)[C@H]1CC[C@](C)(O)[C@H]2CC1=CC(=O)C=CC1=O | – | –
– | C=C1CCC[C@H]2[C@](C)(CC3=C(O)C(=O)C=C(OC)C3=O)[C@@H](C)CC[C@]12C | inactive | –
0.3 (≈ 0.927 µM) | NCCCNCCCN1CCCC/C=C\CCCCCCCC1 [MOTUPORAMINE C] | – | –
7 (≈ 16.3 µM) | C[C@@]12CC[C@@H]3[C@]4(CCC[C@]3(C)C(=O)OC4)[C@H]1CC[C@](C)(O)[C@H]2Cc1cc(O)ccc1O [strongylophorine-8] | – | –
1 (≈ 2.19 µM) | COC1=CC(=O)C=C(C[C@H]2[C@]3(C)CC[C@@H]4[C@]5(CCC[C@]4(C)C(=O)OC5)[C@H]3CC[C@]2(C)O)C1=O [strongylophorine-26] | – | Active
